From publication PMC12633754, “Elastase inhibition by natural flavonoids: mechanistic insights and potential therapeutic applications” (Frontiers in Nutrition, 2025)

What was measured:
[1] = target: T1, porcine pancreatic elastase (PPE) (Sus scrofa, UniProt P00772); assay: Elastase inhibition assay, fluorescent substrate MeOSuc-Ala-Ala-Pro-Val-AMC; assay type: biochemical; settings: for IC50: 298 K; for inhibition at 22.5 µM: read-out: Inhibition rate of PPE
T1 construct: purchased Sigma-Aldrich (St. Louis, MO, United States)
Procedure: Elastase was selected as the enzyme target and MeOSuc-Ala-Ala-Pro-Val-AMC as the substrate for the enzymatic reaction. According to the principle of enzyme reactions, an in vitro target enzyme drug screening model was established by measuring the relative fluorescence intensity for drug screening and evaluation. The inhibition rate was measured using a FlexStation3 multifunctional plate reader (Molecular Devices, Shanghai, China). Elastase solution (50 μL, 5 × 10^−7 mol/L) was mixed with a fluorescent substrate (50 μL, 2 × 10^−5 mol/L), and Tris–HCl buffer solution was added to obtain a total volume of 200 μL. […] The excitation wavelength was adjusted to 380 nm, and the emission wavelength was recorded in the range 420–540 nm. A 200 μL buffer solution was used as the blank for reference. The relative fluorescence values of pure enzyme activity were recorded. Four monomer solutions of the same concentration were added separately and their relative fluorescence values were measured under the same conditions. The concentration of each monomer was varied in different samples to obtain IC50 values. Inhibition rate (%) was calculated as follows:
Inhibition rate(%)=RFUPPE−RFUDrugs+PPE/RFUPPE×100% (1)
where the relative fluorescence unit (RFU) PPE refers to the relative fluorescence measured when only PPE and the fluorescent substrate are present without any inhibitors, and RFU Drugs+PPE refers to the relative fluorescence measured when both PPE and the test drug inhibitor are present.

[2] = target: T1, porcine pancreatic elastase (PPE); assay: Intrinsic fluorescence quenching of PPE: Stern-Volmer, binding constants, thermodynamics; settings: for Kd: Ka binding constant; for ΔH / ΔS: van't Hoff, 298, 303, 310 K
Procedure: Fluorescence measurements were performed using a model F-7000 fluorescence spectrometer (Hitachi, Tokyo, Japan). Elastase solution (2,000 μL in Tris–HCl buffer solution) was mixed with inhibitor solutions at different concentrations in a 1.0 cm quartz cell at 298, 303, and 310 K. The final concentrations of the four natural flavonoids and elastase were identical to those used to obtain the synchronous fluorescence spectra. The fluorescence emission spectra were recorded within the range of 285–500 nm, following excitation at 280 nm. The excitation and emission slit widths were set as 2.5 nm. The scan speed was 1,200 nm/min and the photomultiplier tube (PMT) voltage was 630 V. Fluorescence intensities were corrected for inner filter and dilution effects before analyzing the binding and quenching data.
To determine the type of fluorescence quenching of the monomer interacting with PPE, the Stern-Volmer equation was used ([20]–[22]):
F0/F=KSV[Q]+1=Kqτ0[Q]+1 (2)
where F0 and F are the fluorescence intensities of PPE before and after the addition of different monomer solutions, respectively, Ksv is the quenching constant, [Q] is the concentration of different drugs, Kq is the quenching rate constant, τ0 is the average fluorescence lifetime of the substance in the absence of a quencher, and τ0 for the general biological macromolecule is 1 × 10^−8 s ([20], [23], [24]).
According to the correction formula, the binding constant (Ka) and number of binding points (n) for the actions of the four monomers and PPE were calculated as follows ([25]–[27]):
lgF0−F/F=nlgKa−nlg1/[Q0]−[P0]F0−F/F0 (3)
where [ Q0 ] and [P0] are the drug and PPE concentrations, respectively.
where K is the binding constant of the interaction, R is the gas constant, ΔH, ΔG, and ΔS are enthalpy, Gibbs energy, and entropy change.

[3] = target: T1, porcine pancreatic elastase (PPE); assay: Fluorescence resonance energy transfer and binding distance; settings: [PPE] = [flavonoid] = 10 μM, 298 K
Procedure: The PPE-quercetin, PPE-hyperoside, PPE-luteolin, and PPE-luteoloside binding distances were calculated according to the fluorescence resonance energy transfer theory ([31]–[33]):
J=∑FD(λ)εA(λ)λ^4Δλ/∑FD(λ)Δλ (9)
where k^2 is the dipole moment spatial orientation factor, usually taking the average 2/3; φ is the quantum efficiency of PPE, usually a quantum efficiency of Try residues of 0.15; n is the refractive index of the medium, representing the average of water and organic matter; J is the overlap integral of the absorption spectra and the fluorescence spectra; and ɛA(λ) is the molar extinction coefficient ([34]–[36]).

[4] = target: T1, porcine pancreatic elastase (PPE); assay: UV-vis absorption spectra of PPE with flavonoid; settings: PPE 5 μM, flavonoid 15 μM, 298 K
Procedure: The UV–vis absorption spectra of porcine pancreatic elastase PPE (2.5 mL) were recorded using a Cary 300 spectrometer (Agilent, San Diego, CA, United States) in a quartz cuvette with a path length of 10 mm. PPE concentration was fixed at 5 μM and the drug concentrations were 0 and 15 μM. Tris–HCl solution (pH 7.6) was used as the blank. The control group was a solution of four flavonoid monomers at a final concentration of 15 μM. The spectra were recorded in the range of 200–500 nm with a slit width of 2 nm at 298 K.

[5] = target: T1, porcine pancreatic elastase (PPE); assay: Synchronous fluorescence spectra of PPE; settings: Δλ = 60 nm, PPE 2 μM, flavonoid 0-80 μM, 298 K
Procedure: For the synchronous fluorescence spectroscopy experiments, the configuration of the solution preparation was the same as that used in experiment 2.3. Synchronous fluorescence spectra of PPE-quercetin, PPE-hyperoside, PPE-luteolin, and PPE-luteoloside were recorded at 298 K.

[6] = target: T1, porcine pancreatic elastase (PPE); assay: FT-IR spectra of PPE-monomer complexes; settings: PPE 10 μM, flavonoid 100 μM
Procedure: FTIR spectra were obtained using the potassium bromide (KBr) compression method with a Nicolet IS-50 spectrometer (Thermo Fisher Scientific, Waltham, MA, United States). […] The sheets were then dried at 45 °C and pressed. Blank background for the PBS buffer sheets. The spectral region between 4,000 and 500 cm^−1 was selected to examine changes in the secondary structure resulting from enzyme-drug interactions. All samples were assayed after drying and the experimental conditions were consistent for each group of assays.

[7] = target: T1, porcine pancreatic elastase (PPE); assay: CD spectroscopy, secondary structure of PPE; settings: PPE 5 μM, flavonoid 2.5 μM, 298 K; for α-helix (%): PPE alone 7.50; for Random coil (%): PPE alone 41.00; for β-sheet (%): PPE alone 51.50
Procedure: The CD spectra of PPE, PPE-quercetin, PPE-hyperoside, PPE-luteolin, and PPE-luteoloside were obtained using an MOS-500 CD spectrometer (Biologic Science Instruments, Seyssinet-Pariset, France). […] Set at a temperature of 298 K. The signal was recorded from 190 to 260 nm using a path length of 1 mm, acquisition duration of 0.5 s, and scanning step of 2 nm. The CD spectra were averaged after performing three scans and correcting for the background value of the phosphate buffer. All results were documented as CD ellipticity in degrees.

T1 sequence (P00772 27-266): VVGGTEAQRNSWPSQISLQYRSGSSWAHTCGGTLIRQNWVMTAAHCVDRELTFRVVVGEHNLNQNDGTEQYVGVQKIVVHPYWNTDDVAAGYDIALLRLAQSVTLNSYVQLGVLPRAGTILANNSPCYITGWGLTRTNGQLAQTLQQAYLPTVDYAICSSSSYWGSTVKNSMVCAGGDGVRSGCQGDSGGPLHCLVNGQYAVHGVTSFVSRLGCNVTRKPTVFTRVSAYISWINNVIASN

Compound | IC50 [1] [µM] | inhibition at 22.5 µM [1] [%] | KSV Stern-Volmer quenching constant ([2]; 298 K) | Kq quenching rate constant ([2]; 298 K) | n number of binding sites ([2]; 298 K) | KSV Stern-Volmer quenching constant ([2]; 303 K) | Kq quenching rate constant ([2]; 303 K) | n number of binding sites ([2]; 303 K) | ΔG ([2]; 303 K) [kcal/mol] | KSV Stern-Volmer quenching constant ([2]; 310 K) | Kq quenching rate constant ([2]; 310 K) | n number of binding sites ([2]; 310 K) | ΔG ([2]; 310 K) [kcal/mol] | ΔH [2] [kcal/mol] | ΔS [2] | R0 [3] [nm] | binding distance r [3] [nm] | amide I band of PPE after addition (from 1638.45) [6] [cm⁻¹] | decrease of α-helical structure [7] [%] | α-helix (%) [7] [%] | further results
O=c1c(O[C@@H]2O[C@H](CO)[C@H](O)[C@H](O)[C@H]2O)c(-c2ccc(O)c(O)c2)oc2cc(O)cc(O)c12 [hyperoside] | 31 | 41.1 | 5.47 10^4 L•mol^−1 | 5.47 10^12 L•mol^−1•s^−1 | 1.58 | 4.85 10^4 L•mol^−1 | 4.85 10^12 L•mol^−1•s^−1 | 1.56 | -6.874 | 4.78 10^4 L•mol^−1 | 4.78 10^12 L•mol^−1•s^−1 | 1.35 | -6.881 | -6.5753 | −4.108 J/(mol•K) | 1.86 | 2.40 | 1633.14 | 1.20 | 6.30 | Kd ([2]; 298 K): 24.6 µM; Kd ([2]; 303 K): 29.6 µM; Kd ([2]; 310 K): 31.3 µM; blue shift of maximum absorption peak of PPE (275 nm) [4]: 4 nm; red shift of Trp synchronous fluorescence [5]: 7 nm; Random coil (%) [7]: 46.34%; β-sheet (%) [7]: 47.36%
O=c1cc(-c2ccc(O)c(O)c2)oc2cc(O)cc(O)c12 [luteolin] | 18.2 | 54.3 | 1.15 10^4 L•mol^−1 | 1.15 10^12 L•mol^−1•s^−1 | 0.97 | 1.04 10^4 L•mol^−1 | 1.04 10^12 L•mol^−1•s^−1 | 1.11 | -6.511 | 0.98 10^4 L•mol^−1 | 0.98 10^12 L•mol^−1•s^−1 | 1.17 | -6.52 | -6.0327 | −6.585 J/(mol•K) | 1.97 | 2.67 | 1632.53 | 0.96 | 6.54 | Kd ([2]; 298 K): 82.6 µM; Kd ([2]; 303 K): 95.2 µM; Kd ([2]; 310 K): 102 µM; blue shift of maximum absorption peak of PPE (275 nm) [4]: 3 nm; red shift of Trp synchronous fluorescence [5]: 4 nm
O=c1c(O)c(-c2ccc(O)c(O)c2)oc2cc(O)cc(O)c12 [quercetin] | – | 22.2 | 0.59 10^4 L•mol^−1 | 0.59 10^12 L•mol^−1•s^−1 | 1.13 | 0.58 10^4 L•mol^−1 | 0.58 10^12 L•mol^−1•s^−1 | 0.99 | -5.208 | 0.52 10^4 L•mol^−1 | 0.52 10^12 L•mol^−1•s^−1 | 0.80 | -5.284 | -1.901 | 45.6521 J/(mol•K) | 1.91 | 2.82 | 1633.59 | 1.14 | 6.36 | ΔG ([2]; 298 K): -5.153 kcal/mol; Random coil (%) [7]: 44.59%; β-sheet (%) [7]: 49.05%
